The source of these data is US7160903B2, “Sulfonylaminocarboxylic acids” (Sanofi-Aventis Deutschland GmbH, priority 1997, dated 2007).

The target in one series is T1, stromelysin (MMP-3) (Homo sapiens, UniProt P08254).
T1 construct: enzymatic activity of the catalytic domains of human stromelysin and of neutrophil collagenase; made in house
As to the kind of experiment: Enzymatic activity of the catalytic domain of human stromelysin (fluorogenic substrate). The format is biochemical. As to conditions: pH=6.5, 15 min preincubation, fluorescence 328 nm (ex)/393 nm (em). As for the experimental part: (§1) Preparation and determination of the enzymatic activity of the catalytic domains of human stromelysin and of neutrophil collagenase:
(§2) The enzymes stromelysin (MMP-3) and neutrophil collagenase (MMP-8) were prepared according to Ye et al. (Biochemistry; 31 (1992) pages 11231–11235). To measure the enzyme activity or the enzyme inhibitor action, 70 μl of buffer solution and 10 μl of enzyme solution are incubated for 15 min with 10 μl of a 10% strength (v/v) aqueous dimethyl sulfoxide solution, which optionally contains the enzyme inhibitor. After addition of 10 μl of a 10% strength (v/v) aqueous dimethyl sulfoxide solution which contains 1 mmol/L of the substrate, the enzyme reaction is monitored by fluorescence spectroscopy (328 nm (ex)/393 nm(em)). The enzyme activity is shown as the extinction increase/min. The IC50 values listed in Table 2 are determined as those inhibitor concentrations which in each case led to a 50% inhibition of the enzyme.
(§3) The buffer solution contains 0.05% Brij (Sigma, Deisenhofen, Germany) and also 0.1 mol/L Tris/HCl, 0.1 mol/L NaCl, 0.01 mol/L CaCl2 and 0.1 mol/L piperazine-N,N′-bis[2-ethanesulfonic acid] (pH=6.5). The enzyme solution contains 5 μg/ml of one of the enzyme domains prepared according to Ye et al. The substrate solution contains 1 mmol/L of the fluorogenic substrate (7-methoxycoumarin-4-yl)acetyl-Pro-Leu-Gly-Leu-3-(2′,4′-dinitrophenyl)-L-2,3-diaminopropionyl-Ala-Arg-NH2 (Bachem, Heidelberg, Germany).

For series [1], the target named is T2, neutrophil collagenase (MMP-8) (Homo sapiens, UniProt P22894).
T2 construct: enzymatic activity of the catalytic domains of human stromelysin and of neutrophil collagenase; made in house
T2 sequence (P22894 100-262 limits assumed): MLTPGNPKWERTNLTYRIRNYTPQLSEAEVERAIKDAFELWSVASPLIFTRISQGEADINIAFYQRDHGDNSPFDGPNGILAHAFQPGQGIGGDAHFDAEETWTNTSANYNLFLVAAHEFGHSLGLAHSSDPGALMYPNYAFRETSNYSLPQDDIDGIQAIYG
Put plainly: Enzymatic activity of the catalytic domain of neutrophil collagenase (fluorogenic substrate). Type of series: biochemical. The settings on record: pH=6.5, 15 min preincubation, fluorescence 328 nm (ex)/393 nm (em), read-out: Neutr. collagenase IC50. The protocol: as §1, §2, §3

The term IC50 denotes the concentration at which inhibition is half-maximal. What is called melting point is the temperature of the solid-liquid transition.

T1 sequence (P08254 100-272 limits assumed): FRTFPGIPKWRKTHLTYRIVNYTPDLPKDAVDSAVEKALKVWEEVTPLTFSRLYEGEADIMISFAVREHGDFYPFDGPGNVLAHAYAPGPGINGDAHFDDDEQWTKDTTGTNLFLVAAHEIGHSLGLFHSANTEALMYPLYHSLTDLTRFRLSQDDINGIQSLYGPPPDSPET

For `O=C(CC[C@H](NS(=O)(=O)c1ccc(-c2ccc(N3CCCC3)cc2)cc1)C(=O)O)Nc1ccccc1` [Example 80], the melting point is > 228 °C (dec.). Also, the half-maximal inhibitory concentration (IC50) against stromelysin (MMP-3) was 0.007 µM. In addition, in series [1], the IC50 came to 0.002 µM.

Take `O=C(CCC(NS(=O)(=O)c1ccc(-c2ccc(N3CCCC3)cc2)cc1)C(=O)O)Nc1ccccc1` (racemic) [Example 76]: the melting point is 234 to 236 °C (dec.). The compound further returned an IC50 at stromelysin (MMP-3) of 0.005 µM. In addition, the IC50 in series [1] worked out at 0.003 µM. Regarding `O=C(O)[C@@H](Cc1ccccc1)NS(=O)(=O)c1ccc(-c2ccc(C(F)(F)F)cc2)cc1` [Example 20], the melting point fell in the range of 159 to 162 °C. Also, the IC50 on stromelysin (MMP-3) was 0.4 µM. The concentration for half-maximal inhibition (IC50) in series [1] amounted to 0.02 µM.

Take `O=C(CCC(NS(=O)(=O)c1ccc(-c2ccc(Cl)cc2)cc1)C(=O)O)Nc1ccccc1` (racemic) [Example 69]: the melting point is 238 to 239 °C. The same compound showed a 50% inhibitory concentration (IC50) against stromelysin (MMP-3) of 0.01 µM. Further, in series [1], the IC50 turned out to be 0.004 µM. With `O=C(O)[C@H](CCC(=O)N1CCc2ccccc21)NS(=O)(=O)c1ccc(-c2ccc(N3CCCC3)cc2)cc1` [Example 101], the melting point is > 130 °C (dec.). Consider `O=C(O)C(NS(=O)(=O)c1ccc(-c2ccc(Cl)cc2)cc1)c1ccsc1` (racemic) [Example 26], for which the IC50 at stromelysin (MMP-3) is 0.4 µM; in series [1] it was 0.04 µM. For the compound `O=C(O)CCCC(NS(=O)(=O)c1ccc(-c2ccccc2)cc1)C(=O)O` (racemic) [Example 82], the melting point was 171.5 to 172 °C. Inhibition at stromelysin (MMP-3) was half-maximal at 0.1 µM (IC50). Further, the half-maximal inhibitory concentration (IC50) in series [1] was determined as 0.01 µM. Regarding `CP(=O)(O)CC[C@H](NS(=O)(=O)c1ccc(-c2ccc(Cl)cc2)cc1)C(=O)O` [Example 104], the results for the concentration for half-maximal inhibition (IC50) (against stromelysin (MMP-3); in series [1]) were 0.04 µM and 0.005 µM, respectively. The compound `O=C(CC[C@H](NS(=O)(=O)c1ccc(-c2ccccc2)cc1)C(=O)O)Nc1ccccc1` [Example 79] had a melting point of 234.5 to 235.5 °C. Further, the half-maximal inhibitory concentration (IC50) at stromelysin (MMP-3) was 0.02 µM. Also, in series [1], the half-maximal inhibitory concentration (IC50) is 0.004 µM. Regarding `O=C(O)C(NS(=O)(=O)c1ccc(-c2ccc(Cl)cc2)cc1)C(O)c1cccs1` (stereo not shown) [Example 36], the IC50 against stromelysin (MMP-3) was 0.2 µM; in series [1], 0.01 µM. For `O=C(O)[C@H](CSCc1ccccc1)NS(=O)(=O)c1ccc(-c2ccc(Cl)cc2)cc1` [Example 32], in that order: 0.2 µM and 0.04 µM. On to `CN(C)c1ccc(-c2ccc(S(=O)(=O)N[C@H](CCC(=O)O)C(=O)O)cc2)cc1` [Example 46], for which the melting point is 165 °C. The compound `O=C(O)[C@H](Cc1c[nH]cn1)NS(=O)(=O)c1ccc(Oc2ccccc2)cc1` [Example 30] gave a melting point of 183 to 185 °C. As to `NC(=O)CC[C@@H](NS(=O)(=O)c1ccc(-c2ccc(Cl)cc2)cc1)C(=O)O` [Example 51], the IC50 stood at 0.05 µM against stromelysin (MMP-3) and 0.005 µM in series [1]. Turning to `O=C(C[C@H](NS(=O)(=O)c1ccc(-c2ccc(Cl)cc2)cc1)C(=O)O)OCc1ccccc1` [Example 41], the IC50 at stromelysin (MMP-3) came to 0.2 µM; in series [1] it was 0.03 µM. For `NNC(=O)CC[C@H](NS(=O)(=O)c1ccc(-c2ccccc2)cc1)C(=O)O` [Example 59], the melting point was 205 to 207 °C. `C[S+]([O-])CC[C@@H](NS(=O)(=O)c1ccc(-c2ccc(Cl)cc2)cc1)C(=O)O` (stereo partly shown) [Example 15]: the half-inhibitory concentration (IC50) was 0.1 µM against stromelysin (MMP-3) and 0.01 µM in series [1]. In turn, `CN(C)c1ccc(-c2ccc(S(=O)(=O)NC(CCC(=O)Nc3ccccc3)C(=O)O)cc2)cc1` (racemic) [Example 48] returned a melting point of 212 to 214 °C. Consider `CN(C)c1ccc(-c2ccc(S(=O)(=O)N[C@@H](CCC(N)=O)C(=O)O)cc2)cc1` [Example 49], for which the melting point is 213 to 215 °C.

For `O=C(O)C[C@@H](NS(=O)(=O)c1ccc(-c2ccccc2)cc1)C(=O)O` [Example 38], the melting point was greater than 55 °C. As to `O=C(O)C(CSC1=NCCS1)NS(=O)(=O)c1ccc(-c2ccc(Cl)cc2)cc1` (racemic) [Example 19], the values for the IC50 (against stromelysin (MMP-3); in series [1]) were 0.5 µM and 0.05 µM, respectively. For `O=C(O)[C@@H]1CN1S(=O)(=O)c1ccc(-c2ccccc2)cc1` (stereo partly shown) [Example 64], the melting point lay in the range of 138 to 139 °C.

In turn, `CSCC[C@@H](NS(=O)(=O)c1ccc(-c2ccon2)s1)C(=O)O` [Example 13] gave a melting point of 70 to 76 °C. For `NC(=O)CC[C@@H](NS(=O)(=O)c1ccc(-c2ccccc2)cc1)C(=O)O` [Example 72], the IC50 on stromelysin (MMP-3) is 0.6 µM; in series [1] it was 0.02 µM. Take `O=C(O)[C@@H](Cc1csc2ccccc12)NS(=O)(=O)c1ccc(-c2ccc(Cl)cc2)cc1` [Example 28]: the values for the IC50 (at stromelysin (MMP-3); in series [1]) were 0.3 µM and 0.06 µM, respectively.

Regarding `COc1ccc(CC(NS(=O)(=O)c2ccc(-c3ccc(N(C)C)cc3)cc2)C(=O)O)cc1OC` (racemic) [Example 24], the melting point turned out to be 230 °C. In the case of `O=C(O)[C@@H](Cc1c[nH]c2ccccc12)NS(=O)(=O)c1ccc(-c2ccc(Cl)cc2)cc1` [Example 29, (R)-N-(4-Chlorobiphenylsulfonyl)tryptophan], the 50% inhibitory concentration (IC50) was 0.08 µM against stromelysin (MMP-3) and 0.009 µM in series [1]. Consider `O=C(O)[C@H]1C[C@@H](O)CN1S(=O)(=O)c1ccc(-c2ccc(Cl)cc2)cc1` [Example 2, (2R)-1-(4-Chlorobiphenylsulfonyl)-4-cis-hydroxyproline], for which the half-inhibitory concentration (IC50) against stromelysin (MMP-3) turned out to be 0.1 µM; in series [1], 0.09 µM. On to `O=C(O)[C@H](CCC(=O)N1CCc2ccccc21)NS(=O)(=O)c1ccc(-c2ccccc2)cc1` [Example 100], for which the melting point lay within 182.5 to 183.5 °C. For the same compound, the IC50 in series [1] was determined as 0.02 µM.

As for `O=C(O)[C@@H](CO)NS(=O)(=O)c1ccc(-c2ccc(Cl)cc2)cc1` [Example 7], the half-maximal inhibitory concentration (IC50) against stromelysin (MMP-3) came out at 0.2 µM; in series [1], 0.04 µM.

Consider `O=C(O)CCN(CC(=O)O)S(=O)(=O)c1ccc(Oc2ccc(Cl)cc2)cc1` [Example 45], for which the melting point was in the range of 169 to 171 °C. As for `O=C(O)C(Cc1cccnc1)NS(=O)(=O)c1ccc(-c2ccc(Cl)cc2)cc1` (racemic) [Example 88], the IC50 against stromelysin (MMP-3) turned out to be 0.1 µM; in series [1] it was 0.007 µM.

In the case of `O=C(c1ccccc1)c1ccc(C[C@@H](NS(=O)(=O)c2ccc(-c3ccc(Cl)cc3)cc2)C(=O)O)cc1` [Example 23], the IC50 at stromelysin (MMP-3) was 1 µM; in series [1], 0.6 µM.

Consider `O=C(O)C[C@H](NS(=O)(=O)c1ccc(-c2ccc(Cl)cc2)cc1)C(=O)OCc1ccccc1` [Example 42], for which the figures for the half-maximal inhibitory concentration (IC50) (against stromelysin (MMP-3); in series [1]) were 0.4 µM and 0.03 µM, respectively. For `O=C(O)C(NS(=O)(=O)c1ccc(-c2ccc(Cl)cc2)cc1)C(O)c1ccccc1` (stereo not shown) [Example 34], the 50% inhibitory concentration (IC50) turned out to be 0.2 µM on stromelysin (MMP-3) and 0.02 µM in series [1]. `O=C(O)C[C@@H](C(=O)O)N(Cc1ccncc1)S(=O)(=O)c1ccc(-c2ccccc2)cc1` [Example 43] showed a melting point of 105 °C. Take `NC(=O)C[C@@H](NS(=O)(=O)c1ccc(-c2ccc(Cl)cc2)cc1)C(=O)O` [Example 44]: the half-inhibitory concentration (IC50) against stromelysin (MMP-3) was found to be 0.09 µM; in series [1], 0.01 µM. For the compound `C=CC(NS(=O)(=O)c1ccc(-c2ccc(Cl)cc2)cc1)C(=O)O` (racemic) [Example 6], the 50% inhibitory concentration (IC50) against stromelysin (MMP-3) is 0.2 µM; in series [1], 0.02 µM.

In turn, `O=C(CCC(NS(=O)(=O)c1ccc(-c2ccccc2)cc1)C(=O)O)Nc1ccccc1` (racemic) [Example 47] showed a melting point of 227 to 230 °C. Consider `O=C(O)[C@@H](CCc1ccccc1)NS(=O)(=O)c1ccc(-c2ccc(Cl)cc2)cc1` [Example 25], for which the half-maximal inhibitory concentration (IC50) at stromelysin (MMP-3) is 0.2 µM; in series [1] it was 0.04 µM. On to `O=C(CC[C@H](NS(=O)(=O)c1ccc(-c2ccccc2)cc1)C(=O)O)Nc1ccc(C(=O)O)cc1` [Example 50], for which the melting point worked out at 266 °C. On to `CS(=O)(=O)CC[C@H](NS(=O)(=O)c1ccc(-c2ccc(Cl)cc2)cc1)C(=O)O` [Example 17], for which the values for the IC50 (against stromelysin (MMP-3); in series [1]) were 0.1 µM and 0.02 µM, respectively.

With `O=C(O)C[C@H](NS(=O)(=O)c1ccc(-c2ccccc2)cc1)C(=O)O` [Example 37], the melting point worked out at 186.7 °C. Turning to `CSCC[C@@H](NS(=O)(=O)c1ccc(-c2ccc(Cl)cc2)cc1)C(=O)O` [Example 10], the concentration for half-maximal inhibition (IC50) worked out at 0.09 µM at stromelysin (MMP-3) and 0.01 µM in series [1]. `CSCC[C@@H](NS(=O)(=O)c1ccc(-c2ccccn2)s1)C(=O)O` [Example 12] had a melting point of 115 to 125 °C.

As to `CN(CC(=O)O)S(=O)(=O)c1ccc(Oc2ccc(Cl)cc2)cc1` [Example 4], the melting point fell in the range of 128 to 130 °C.

For the compound `O=C(O)C(CCc1c[nH]c2ccccc12)NS(=O)(=O)c1ccc(-c2ccc(Cl)cc2)cc1` (racemic) [Example 105], the results for the IC50 (at stromelysin (MMP-3); in series [1]) were 0.03 µM and 0.01 µM, respectively. Turning to `CS(=O)(=O)CC[C@@H](NS(=O)(=O)c1ccc(-c2ccc(Cl)cc2)cc1)C(=O)O` [Example 16], the IC50 at stromelysin (MMP-3) is 0.07 µM; in series [1], 0.007 µM.
